The values that follow come from US9714249B2 (Novartis AG, priority 2013, dated 2017).

Usually IC50 stands for the concentration at which inhibition is half-maximal. A lower IC50 goes with higher potency. As usually defined, the GI50 is the concentration giving 50% growth inhibition. Read a low GI50 as more potent growth inhibition.

One test has as its target BRD3 (His-Brd3(20-477)) (Homo sapiens (Human), UniProt Q15059). In words: TR-FRET in-vitro binding assay for BRD3. The conditions noted are these: acetyl-histone H4 peptide. On the procedure:
All assays were performed in 384 well microtiter plates. Each assay plate contained 8-point serial dilutions for 40 test compounds, plus 16 high- and 16 low controls. Liquid handling and incubation steps were done on an Innovadyne Nanodrop Express equipped with a robotic arm (Thermo CatX, Perkin Elmer/Caliper Twister II) and an incubator (Liconic STX40, Thermo Cytomat 2C450). The assay plates were prepared by addition of 50 nl per well of compound solution in 90% DMSO HummingBird nanodispenser (Zinsser Analytic). The assay was started by stepwise addition of 4.5 μl per well of bromo domain protein (50 mM HEPES, pH 7.5, 0.005% Tween20, 0.1% BSA, 50 mM NaCl, 45 nM His-Brd2(60-472) or 45 nM His-Brd3(20-477) or 45 nM His-Brd4(44-477) all proteins produced in-house) and 4.5 μl per well of peptide solution (50 mM HEPES, pH 7.5, 0.005% Tween20, 0.1% BSA, 50 mM NaCl, 60 nM acetyl-histone H4 (AcK 5, 8, 12, 16) (Biosyntan GmbH)). Reactions were incubated at 30° C. for 35 minutes. Subsequently 4.5 μl per well detection mix (50 mM HEPES, pH 7.5, 0.005% Tween20, 0.1% BSA, 50 mM NaCl, 3 nM Eu-labeled anti-His6 antibody, 21 nM streptavidin-allophycocyanin) were added. After 35 minutes incubation at 30° C., plates were measured in a Perkin Elmer EnVision multilabel reader. Concentrations causing 50% inhibition (1050) values were determined from percent inhibition values at different compound concentrations by non-linear regression analysis.
Test compounds were dissolved in DMSO (10 mM) and transferred into 1.4 mL flat bottom or V-shaped Matrix tubes carrying a unique 2D matrix. The stock solutions were stored at […] if not used immediately. For the test procedure the vials were defrosted and identified by a scanner whereby a working sheet was generated that guided the subsequent working steps. Compound dilutions were made in 96 well plates. This format enabled the assay of maximally 40 individual test compounds at 8 concentrations (single points) including 4 reference compounds, if desired (known BET inhibitors from the prior art, for this and other assays of the type disclosed herein). The dilution protocol included the production of “pre-dilution plates”, “master plates” and “assay plates”.
Pre-dilution plates: 96 polypropylene well plates were used as pre-dilution plates. A total of 4 pre-dilution plates were prepared including 10 test compounds each on the plate positions A1-A10, one standard compound at A11 and one DMSO control at A12. All dilution steps were done on a HamiltonSTAR robot. Master plates: 30 μL of individual compound dilutions including standard compound and controls of the 4 “pre-dilution plates” were transferred into a 384 “master plate” including the following concentrations 10000, 3003, 1000, 300, 100, 30, 10 and 3 μM, respectively in 90% of DMSO. Assay plates: Identical “assay plates” were then prepared by pipetting 50 nL each of compound dilutions of the “master plates” into 384-well “assay plates” by means of a HummingBird 384-channel dispenser. These plates were used directly for the assay which was performed in a total volume of 13.55 μL. This led to a final compound concentration of 37, 11, 3.7, 1.1, 0.37, 0.11, 0.037 and 0.011 μM and a final DMSO concentration of 0.37% in the assay. Cell Growth Inhibition Assay
A general note: TR-FRET usually uses a lanthanide donor and a delayed reading to cut background.

The test system of the next test is MV-4-11 cells. In words: Cell growth inhibition assay (CellTiter-Glo), MV-4-11. Type of test: cell-based, human. The conditions noted are these: MV-4-11, 4 days; for GI50: half-maximal growth inhibition; for MV-4-11 TGI: total growth inhibition. On the procedure: (§1) The human leukemia cell lines MV-4-11, THP-1 and K-562 were employed to characterize the effect of BET inhibitors on cellular proliferation and viability. Cells were obtained from the American Type Culture Collection (ATCC) and cultured at 37° C. in a humidified 5% CO2 incubator in the following media: MV-4-11: DMEM high glucose (Animed #1-26F01-I), 10% FCS (Animed #2-01F26-I), 4 mM L-Glutamine (Animed #5-10K50), 1 mM Sodium Pyruvate (Animed # G03625P), 1× Penicillin-Streptomycin (Animed # F12478P); K-562: Iscove's MEM (Animed #1-28F16-I), 10% FCS (Animed #2-01F26-I), 4 mM L-Glutamine (Animed #5-10K50), 1× Penicillin-Streptomycin (Animed # F12478P); THP-1: RPMI-1640 (Animed #1-41F01-I), 10% FCS (Animed #2-01F26-I), 2 mM L-Glutamine (Animed #5-10K50), 10 mM HEPES (Animed #5-31F100), 1 mM Sodium Pyruvate (Animed # G03625P), 1× Penicillin-Streptomycin (Animed # F12478P). The AML lines MV-4-11 and THP-1 are very sensitive to BET inhibitors and show massive cell death upon BET inhibition (Zuber et al., Nature, 478 (2011), 524-8). Compound-mediated suppression of cell proliferation/viability was assessed by quantification of cellular ATP levels using the CellTiter-Glo (CTG) reagent (Promega). Briefly, cells were seeded in 20 μl fresh medium into 384-well plates, followed by addition of 5 μl medium containing compound dilutions at 5-fold their final intended concentration. Dose-response effects were assessed by 3-fold serial dilutions of the test compound, starting at 10 μM. Following incubation of the cells for 4 days at 37° C. and 5% CO2, the effect of inhibitors on cell viability was quantified following addition of 20 μl CTG and luminescence quantification (integration time: 100 ms) as per vendor manual, using a correspondingly equipped Tecan M200 multi-mode platereader (TECAN, Switzerland). For data analysis, the assay background value determined in wells containing medium, but no cells, was subtracted from all data points. To enable differentiation of cytotoxic from cytostatic compounds, the number of viable cells is assessed relative to that observed at the time of compound addition using a separate cell plate (day 0). The effect of a particular test compound concentration on cell proliferation/viability is expressed as percentage of the background- and day 0-corrected luminescence reading obtained for cells treated with vehicle only (DMSO, 0.1% final concentration), which is set as 100%, whereas that luminescence reading for wells containing medium is set as −100%. Compound concentrations leading to half-maximal (1050) and total growth inhibition (TGI) were determined using standard four parameter curve fitting.
(In ATP-based viability assays light output follows the ATP content of the culture.)

The test system of the next test is THP-1 cells. In words: Cell growth inhibition assay (CellTiter-Glo), THP-1. Type of test: cell-based, human. The conditions noted are these: THP-1, 4 days; for GI50: half-maximal growth inhibition; for THP-1 TGI: total growth inhibition. On the procedure: as §1

BRD3 (His-Brd3(20-477)), sequence (Q15059 20-477, species assumed): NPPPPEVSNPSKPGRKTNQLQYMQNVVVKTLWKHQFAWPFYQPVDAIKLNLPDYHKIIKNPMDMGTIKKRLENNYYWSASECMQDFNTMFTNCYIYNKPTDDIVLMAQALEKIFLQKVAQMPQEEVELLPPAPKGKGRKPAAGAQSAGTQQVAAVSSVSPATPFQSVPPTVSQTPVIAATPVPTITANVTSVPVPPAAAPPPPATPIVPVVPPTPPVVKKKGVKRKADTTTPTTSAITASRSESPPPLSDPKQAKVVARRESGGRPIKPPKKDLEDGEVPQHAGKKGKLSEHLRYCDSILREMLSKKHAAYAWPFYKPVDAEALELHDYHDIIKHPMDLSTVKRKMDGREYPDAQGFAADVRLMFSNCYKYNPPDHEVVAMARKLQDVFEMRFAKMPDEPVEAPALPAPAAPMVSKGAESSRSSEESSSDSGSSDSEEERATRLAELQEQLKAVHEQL

`Cc1cc(N2C(=O)c3c(C4CC4)nn(C)c3C2c2ccc(Cl)cc2)cn(C)c1=O` (stereo not shown) [Example 1, 6-(4-chlorophenyl)-3-cyclopropyl-5-(1,5-dimethyl-6-oxo-1,6-dihydropyridin-3-yl)-1-methyl-5,6-dihydropyrrolo[3,4-c]pyrazol-4(1H)-one] registered an IC50 on BRD3 (His-Brd3(20-477)) of 30 nM. For the same compound, the GI50 in the test with MV-4-11 cells (Homo sapiens, MV4-11, 96 h) was 24.6 nM; in the test with THP-1 cells (Homo sapiens, 96 h), 44.9 nM. In addition, the “MV-4-11 TGI” value in the test on MV-4-11 cells was determined as 41.2 nM. Also, the “THP-1 TGI” value in the test on THP-1 cells turned out to be 104 nM.
On BRD3 (His-Brd3(20-477)), `CNC1=C(C(=N)C2CC2)C(=O)N(c2cc(C)c(=O)n(C)c2)[C@@H]1c1ccc(Cl)cc1` [Example 2] gave an IC50 of 20 nM. In the test with MV-4-11 cells, it took 15.4 nM to inhibit growth by half (GI50) and the “MV-4-11 TGI” value was 30.3 nM. Besides, in the test on THP-1 cells, the GI50 was found to be 21.9 nM and the “THP-1 TGI” value came out at 46.8 nM.
`Cc1cc(N2C(=O)c3c(C4CC4)nn(CCO)c3C2c2ccc(Cl)cc2)cn(C)c1=O` (stereo not shown) [Example 3, 6-(4-chlorophenyl)-3-cyclopropyl-5-(1,5-dimethyl-6-oxo-1,6-dihydropyridin-3-yl)-1-(2-hydroxyethyl)-5,6-dihydropyrrolo[3,4-c]pyrazol-4(1H)-one]: the IC50 at BRD3 (His-Brd3(20-477)) amounted to 34 nM. Moreover, the GI50 was determined as 37.5 nM in the test with MV-4-11 cells (Homo sapiens, MV4-11, 96 h) and 90.1 nM with THP-1 cells (Homo sapiens, 96 h). In addition, the “MV-4-11 TGI” value with MV-4-11 cells was determined as 64 nM. Besides, the “THP-1 TGI” value with THP-1 cells was found to be 264 nM.
On the same counts, the results for `COCCn1nc(C2CC2)c2c1C(c1ccc(Cl)cc1)N(c1cc(C)c(=O)n(C)c1)C2=O` (stereo not shown) [Example 4, 6-(4-chlorophenyl)-3-cyclopropyl-5-(1,5-dimethyl-6-oxo-1,6-dihydropyridin-3-yl)-1-(2-methoxyethyl)-5,6-dihydropyrrolo[3,4-c]pyrazol-4(1H)-one] are 13 nM, 20.5 nM, 45.6 nM, 33.6 nM and 100 nM.
As for `Cc1cc(N2C(=O)c3c(C4CC4)nn(-c4ccnn4C)c3C2c2ccc(Cl)cc2)cn(C)c1=O` (stereo not shown) [Example 5, 6-(4-chlorophenyl)-3-cyclopropyl-5-(1,5-dimethyl-6-oxo-1,6-dihydropyridin-3-yl)-1-(1-methyl-1H-pyrazol-5-yl)-5,6-dihydropyrrolo[3,4-c]pyrazol-4(1H)-one], the IC50 at BRD3 (His-Brd3(20-477)) amounted to 82 nM. The GI50 with MV-4-11 cells (Homo sapiens, MV4-11, 96 h) turned out to be 53.8 nM; in the test with THP-1 cells (Homo sapiens, 96 h), 101 nM. Besides, the “MV-4-11 TGI” value with MV-4-11 cells worked out at 100 nM. Further, the “THP-1 TGI” value in the test on THP-1 cells turned out to be 179 nM.
For `Cc1[nH]nc2c1C(=O)N(c1cc(Cl)c(=O)n(C)c1)C2c1ccc(Cl)cc1` (stereo not shown) [Example 6, 5-(5-chloro-1-methyl-6-oxo-1,6-dihydropyridin-3-yl)-6-(4-chlorophenyl)-3-methyl-5,6-dihydropyrrolo[3,4-c]pyrazol-4(2H)-one], in that order: 80 nM, 74.1 nM, 189 nM, 134 nM and 352 nM.
For `COc1ncccc1-n1nc2c(c1C)C(=O)N(c1cc(Cl)c(=O)n(C)c1)C2c1ccc(Cl)cc1` (stereo not shown) [Example 7b, 5-(5-chloro-1-methyl-6-oxo-1,6-dihydropyridin-3-yl)-6-(4-chlorophenyl)-2-(2-methoxypyridin-3-yl)-3-methyl-5,6-dihydropyrrolo[3,4-c]pyrazol-4(2H)-one], at BRD3 (His-Brd3(20-477)), the IC50 is 24 nM. Besides, the GI50 turned out to be 56.7 nM in the test with MV-4-11 cells (Homo sapiens, MV4-11, 96 h) and 104 nM in the test on THP-1 cells (Homo sapiens, 96 h). Besides, the “MV-4-11 TGI” value in the test with MV-4-11 cells was determined as 82.4 nM. The “THP-1 TGI” value with THP-1 cells was found to be 285 nM.
`COc1ncc(-n2nc(C)c3c2C(c2ccc(Cl)cc2)N(c2cc(Cl)c(=O)n(C)c2)C3=O)cn1` (stereo not shown) [Example 8a, 5-(5-chloro-1-methyl-6-oxo-1,6-dihydropyridin-3-yl)-6-(4-chlorophenyl)-1-(2-methoxypyrimidin-5-yl)-3-methyl-5,6-dihydropyrrolo[3,4-c]pyrazol-4(1H)-one] came in with an IC50 at BRD3 (His-Brd3(20-477)) of 120 nM. Further, the GI50 stood at 141 nM with MV-4-11 cells (Homo sapiens, MV4-11, 96 h) and 127 nM in the test on THP-1 cells (Homo sapiens, 96 h). Besides, in the test on MV-4-11 cells, the “MV-4-11 TGI” value amounted to 294 nM. Moreover, in the test with THP-1 cells, the “THP-1 TGI” value came to 493 nM.
`COc1ncc(-n2nc3c(c2C)C(=O)N(c2cc(Cl)c(=O)n(C)c2)C3c2ccc(Cl)cc2)cn1` (stereo not shown) [Example 8b, 5-(5-chloro-1-methyl-6-oxo-1,6-dihydropyridin-3-yl)-6-(4-chlorophenyl)-2-(2-methoxypyrimidin-5-yl)-3-methyl-5,6-dihydropyrrolo[3,4-c]pyrazol-4(2H)-one]: the IC50 on BRD3 (His-Brd3(20-477)) was 140 nM. The GI50 with MV-4-11 cells (Homo sapiens, MV4-11, 96 h) turned out to be 117 nM; in the test with THP-1 cells (Homo sapiens, 96 h) it was 293 nM. In addition, the “MV-4-11 TGI” value with MV-4-11 cells came to 195 nM. Also, the “THP-1 TGI” value in the test on THP-1 cells amounted to 562 nM.
On the same counts, the results for `Cc1nn(C)c2c1C(=O)N(c1cc(C)c(=O)n(C)c1)C2c1ccc(Cl)cc1` (stereo not shown) [Example 10, 6-(4-chlorophenyl)-5-(1,5-dimethyl-6-oxo-1,6-dihydropyridin-3-yl)-1,3-dimethyl-5,6-dihydropyrrolo[3,4-c]pyrazol-4(1H)-one] are 62 nM, 39.4 nM, 76.4 nM, 65.5 nM and 132 nM.
The compound `Cc1nn(C2CC2)c2c1C(=O)N(c1cc(C)c(=O)n(C)c1)C2c1ccc(Cl)cc1` (stereo not shown) [Example 11, 6-(4-chlorophenyl)-1-cyclopropyl-5-(1,5-dimethyl-6-oxo-1,6-dihydropyridin-3-yl)-3-methyl-5,6-dihydropyrrolo[3,4-c]pyrazol-4(1H)-one] came in with a 50% inhibitory concentration (IC50) at BRD3 (His-Brd3(20-477)) of 34 nM. The GI50 was 18.6 nM with MV-4-11 cells (Homo sapiens, MV4-11, 96 h) and 36.6 nM in the test on THP-1 cells (Homo sapiens, 96 h). For the same compound, in the test with MV-4-11 cells, the “MV-4-11 TGI” value came out at 29.4 nM. The “THP-1 TGI” value with THP-1 cells turned out to be 82.2 nM.
